In US9845297B2, “Antimicrobial compounds and methods of making and using the same” (Melinta Therapeutics, Inc., priority 2009, dated 2017):

Tested on: Eschericia coli strain ATCC25922
Assay: standard microdilution assay to determine minimum inhibitory concentrations (MICs)
Format: cell-based
Conditions: Escherichia coli, ATCC25922, Eschericia coli strain ATCC25922, standard microdilution assay; read-out: E. coli ATCC25922 MIC
How it was run: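 Broth microdilution per CLSI protocols, typically 100 µL final volume, against E. coli ATCC25922. MIC values scored as +/− against a cutoff of 16 micrograms/ml.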

MIC [µg/mL]	SMILES
> 16	N=C(N)NCCCCNC1CCN(c2c[nH]c(NC(=O)Nc3ccccc3OC(F)(F)F)nc2=O)CC1 [Compound 605]
> 16	NCCCNCc1ccc(-c2c[nH]c(NCCc3nc4cc(F)c(F)cc4[nH]3)nc2=O)cc1F [Compound 607]
> 16	NCCCNCc1ccc(-c2c[nH]c(NCCc3nc4cc(F)c(F)cc4o3)nc2=O)cc1F [Compound 608]
> 16	NCCCCNC1CCN(c2c[nH]c(NC(=O)Nc3cc(F)c(F)cc3F)nc2=O)CC1 [Compound 619]
> 16	N=C(N)NCCCNCc1ccc(-c2c[nH]c(NC(=O)NC3CCN(Cc4cc(F)c(F)cc4F)CC3)nc2=O)cc1 [Compound 652]
> 16	N=C(N)NCCCN(CCC1CC1)Cc1ccc(-c2c[nH]c(NC(=O)Nc3cc(F)c(F)cc3F)nc2=O)cc1 [Compound 680]
> 16	NCCCNCc1ccc(-c2c[nH]c(NC(=O)NC3CN(Cc4cc(F)c(F)cc4F)C3)nc2=O)cc1 [Compound 710]
> 16	N=C(N)NCCCNCc1ccc(-c2c[nH]c(NC(=O)NC3CN(Cc4cc(F)c(F)cc4F)C3)nc2=O)cc1 [Compound 712]
> 16	N=C(N)NCCCNCc1ccc(-c2c[nH]c(NC(=O)NC3CCN(Cc4cc(F)c(F)cc4F)C3)nc2=O)cc1 (stereo not shown) [Compound 735]
> 16	N=C(N)NCCCNCc1ccc(-c2c[nH]c(NC(=O)NCCOc3cc(F)c(F)cc3F)nc2=O)cc1 [Compound 739]
< 16	N=C(N)NCCCNCc1ccc(-c2c[nH]c(NC(=O)NC3CN(C(=O)Nc4cc(F)c(F)cc4F)C3)nc2=O)cc1 [Compound 747]
> 16	N=C(N)NCCCNCc1ccc(-c2c[nH]c(NC(=O)NC3CN(S(=O)(=O)c4cc(F)cc(F)c4F)C3)nc2=O)cc1 [Compound 779]
> 16	N=C(N)NCCCNCc1ccc(-c2c[nH]c(NC(=O)NC3CN(C(=O)c4cc(F)cc(F)c4F)C3)nc2=O)cc1 [Compound 780]
> 16	CN(C)CCCOc1ccccc1NC(=O)Nc1nc(=O)c(-c2ccc(CNCCCN)cc2)c[nH]1 [Compound 1291]
> 16	NCCCNCc1ccc(-c2c[nH]c(NC(=O)Nc3ccccc3OCCCO)nc2=O)cc1 [Compound 1294]
> 16	NCCCNCc1ccc(-c2c[nH]c(NC(=O)Nc3ccccc3OCCNC(N)=O)nc2=O)cc1 [Compound 1295]
> 16	NCCCNCc1ccc(-c2c[nH]c(NC(=O)Nc3ccccc3OCCCN)nc2=O)cc1 [Compound 1296]
> 16	NCCCNCc1ccc(-c2c[nH]c(NC(=O)Nc3ccccc3OCCCC(=O)O)nc2=O)cc1 [Compound 1297]
> 16	CCN[C@@H]1CCCCC1NC(=O)Nc1nc(=O)c(-c2ccc(CN)cc2)c[nH]1 (stereo partly shown) [Compound 1302]
> 16	NCCCN1CCC[C@H](NC(=O)Nc2nc(=O)c(-c3ccc(CN)cc3)c[nH]2)C1 [Compound 1303]
> 16	NCCCN1CCC[C@@H](NC(=O)Nc2nc(=O)c(-c3ccc(CN)cc3)c[nH]2)C1 [Compound 1304]
> 16	NCc1ccc(-n2ccc(NC(=O)NC3CCCNC3)nc2=O)cc1 (stereo not shown) [Compound 1305]
> 16	NCc1ccc(-c2c[nH]c(NC(=O)NC3CCCN(CCO)C3)nc2=O)cc1 (stereo not shown) [Compound 1317]
> 16	NCCCN[C@@H]1CCCCC1NC(=O)Nc1nc(=O)c(-c2ccc(CN)cc2)c[nH]1 (stereo partly shown) [Compound 1338]
> 16	NCc1ccc(-c2c[nH]c(NC(=O)NC3CCCC[C@H]3NCC(F)(F)F)nc2=O)cc1 (stereo partly shown) [Compound 1357]
